Two molecules from ChEMBL document CHEMBL5608234, “Heat Shock Protein 90 Interactome-Mediated Proteolysis Targeting Chimera (HIM-PROTAC) Degrading Glutathione Peroxidase 4 to Trigger Ferroptosis” (J Med Chem, 2024) can be followed below.

For series [1], the system named is HT-1080. Put plainly: HIM-PROTAC activity at GPX4/HSP90/E3 ligase in CUL2-knockdown human HT-1080 cells assessed as GPX4 degradation at 0.3 to 1 uM incubated for 24 hrs by Western blotting analysis. The conditions noted are these: dose 0.3-1 µM. Format: cell-based.
Series [2] relates to HT-1080. Put plainly: HIM-PROTAC activity at GPX4/HSP90/E3 ligase in CUL3-knockdown human HT-1080 cells assessed as GPX4 degradation at 0.3 to 1 uM incubated for 24 hrs by Western blotting analysis. Format: cell-based. The conditions noted are these: dose 0.3-1 µM.
The test system of another series is 4T1. The series is described as follows: HIM-PROTAC activity at GPX4/HSP90/E3 ligase in […] cells assessed as reduction in GPX4 level at 0.1 to 3 uM incubated for 24 hrs by Western blotting analysis. The series is classed as cell-based. The conditions noted are these: dose 0.1-3 µM.
Series [3] has as its system HT-1080. The series is described as follows: HIM-PROTAC activity at GPX4/HSP90/E3 ligase in CUL5-knockdown human HT-1080 cells assessed as GPX4 degradation at 0.3 to 1 uM incubated for 24 hrs by Western blotting analysis. Format: cell-based. The following applies: dose 0.3-1 µM.
For series [4], the system named is HT-1080. The series is described as follows: HIM-PROTAC activity at GPX4/HSP90/E3 ligase in CUL1-knockdown human HT-1080 cells assessed as GPX4 degradation at 0.3 to 1 uM incubated for 24 hrs by Western blotting analysis. The series is classed as cell-based. The following applies: dose 0.3-1 µM.
The nature of series [5]: AUC(0 to t) in ICR mouse at 25 mg/kg, ip measured upto 24 hrs by LC-MS/MS analysis. The series is classed as ADME, organism-based. The following applies: in vivo.
The target of series [6] is Heat shock protein HSP 90-alpha (Homo sapiens, UniProt P07900). The series is described as follows: Binding affinity to recombinant human HSP90alpha by SPR assay.
In series [7] the test system is HT-1080. The series is described as follows: HIM-PROTAC activity at GPX4/HSP90/E3 ligase in CHIP knockdown human HT-1080 cells assessed as GPX4 degradation at 1 uM incubated for 24 hrs by Western blotting analysis. The series is classed as cell-based.
For a further series, the system named is Mus musculus. Put plainly: Upregulation of 4-HNE protein level in BALB/c mouse tumor xenografted with human HT-1080 cells at 50 to 100 mg/kg, ip measured upto 36 hrs. The series is classed as functional, organism-based. The following applies: dose 50-100 mg/kg.
Series [8] can be described thus: Tmax in ICR mouse at 25 mg/kg, ip measured upto 24 hrs by LC-MS/MS analysis. The conditions noted are these: in vivo. Format: ADME, organism-based.
Series [9] relates to HT-1080. Put plainly: HIM-PROTAC activity at GPX4/HSP90/E3 ligase in LZTR1 knockdown human HT-1080 cells assessed as GPX4 degradation at 0.3 to 1 uM incubated for 24 hrs by Western blotting analysis. Format: cell-based. The conditions noted are these: dose 0.3-1 µM.
Series [10] has as its system HT-1080. Put plainly: Induction of ferroptosis in human HT-1080 cells assessed as mitochondrial swelling at 1 uM incubated for 24 hrs by TEM analysis. Format: functional, cell-based.
Series [11] deals with HT-1080. Put plainly: HIM-PROTAC activity at GPX4/HSP90/E3 ligase in human HT-1080 cells assessed as GPX4 degradation at 0.3 to 1 uM preincubated with MLN4924 for 2 hrs followed by compound addition and measured after 24 hrs by Western blotting analysis. Format: cell-based. The following applies: dose 0.3-1 µM.
In series [12] the target is T1, Phospholipid hydroperoxide glutathione peroxidase GPX4 (Homo sapiens) (UniProt P36969).
T1 sequence (whole entry): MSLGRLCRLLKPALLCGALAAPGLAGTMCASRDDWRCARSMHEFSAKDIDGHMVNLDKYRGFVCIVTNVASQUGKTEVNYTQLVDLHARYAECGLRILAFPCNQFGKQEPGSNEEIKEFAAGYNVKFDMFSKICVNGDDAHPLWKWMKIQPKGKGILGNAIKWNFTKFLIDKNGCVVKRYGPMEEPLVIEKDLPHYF
The series is described as follows: Induction of GPX4 ubiquitination in human HT-1080 cells at 1 uM incubated for 12 hrs by SDS-PAGE assay. Format: cell-based. The following applies: filed as activator.

Series [13] deals with HT-1080. Put plainly: Induction of ferroptosis in human HT-1080 cells assessed as appearance of autophagosome-like structures at 1 uM incubated for 24 hrs by TEM analysis. The series is classed as functional, cell-based.
Series [14] concerns HT-1080. Put plainly: HIM-PROTAC activity at GPX4/HSP90/E3 ligase in HSP90-knockdown human HT-1080 cells assessed as GPX4 degradation at 1 uM preincubated with KW-2478 and KUNB-31 for 3 hrs followed by compound addition and measured after 24 hrs by Western blotting analysis. Format: cell-based.
Series [15] deals with HT-1080. Put plainly: HIM-PROTAC activity at GPX4/HSP90/E3 ligase in human HT-1080 cells assessed as downregulation of GPX4 mRNA level at 0.1 to 1 uM incubated for 24 hrs by qRT-PCR analysis. The series is classed as cell-based. The following applies: dose 0.1-1 µM.
A short description of series [16]: Toxicity in BALB/c mouse xenografted with human HT-1080 cells assessed as change in lung morphology at 25 to 50 mg/kg, ip administered once daily by H and E staining based assay. Format: organism-based. The following applies: in vivo, dose 25-50 mg/kg.
In series [17] the test system is HT-1080. Put plainly: Downregulation of GPX4 protein level in human HT-1080 cells at 1 uM incubated for 24 hrs by proteomics analysis. Format: functional, cell-based.
Series [18] is described as follows: Toxicity in BALB/c mouse xenografted with human HT-1080 cells assessed as change in heart morphology at 25 to 50 mg/kg, ip administered once daily by H and E staining based assay. Format: organism-based. The conditions noted are these: in vivo, dose 25-50 mg/kg.
Series [19] has as its system HT-1080. Put plainly: HIM-PROTAC activity at GPX4/HSP90/E3 ligase in human HT-1080 cells assessed as GPX4 degradation at 1 uM measured 12 hrs post compound washout by Western blotting analysis. The series is classed as cell-based.
Series [20] can be described thus: MRT(infinity) in ICR mouse at 25 mg/kg, ip measured upto 24 hrs by LC-MS/MS analysis. The series is classed as ADME, organism-based. The conditions noted are these: in vivo.
In series [21] the test system is HT-1080. The series is described as follows: Cytotoxicity against human HT-1080 cells incubated for 48 hrs by CCK-8 assay. Format: functional, cell-based. The following applies: HT-1080, 48 h.
Series [22] can be described thus: Toxicity in BALB/c mouse xenografted with human HT-1080 cells assessed as change in liver morphology at 25 to 50 mg/kg, ip administered once daily by H and E staining based assay. The series is classed as organism-based. The conditions noted are these: in vivo, dose 25-50 mg/kg.
Series [23] concerns HT-1080. Put plainly: HIM-PROTAC activity at GPX4/HSP90/E3 ligase in human HT-1080 cells assessed as reduction in GPX4 level incubated for 24 hrs by Western blotting analysis. The series is classed as cell-based.
In another series the test system is MDA-MB-231. The series is described as follows: HIM-PROTAC activity at GPX4/HSP90/E3 ligase in human MDA-MB-231 cells assessed as reduction in GPX4 level at 0.1 to 3 uM incubated for 24 hrs by Western blotting analysis. The series is classed as cell-based. The conditions noted are these: dose 0.1-3 µM.
Series [24] can be described thus: Drug uptake in human HT-1080 cells at 5 uM incubated for 18 hrs by LC-MS analysis. Format: ADME, cell-based. The following applies: ht-1080, 18 h.
Series [25] can be described thus: Drug uptake in human HT-1080 cells at 5 uM incubated for 6 hrs by LC-MS analysis. The series is classed as ADME, cell-based. The following applies: ht-1080, 6 h.
For series [26], the system named is HT-1080. The series is described as follows: HIM-PROTAC activity at GPX4/HSP90/E3 ligase in human HT-1080 cells assessed as downregulation of GPX4 mRNA level at 1 uM incubated for 24 hrs by qRT-PCR analysis. The series is classed as cell-based.
The test system of series [27] is HT-1080. Put plainly: HIM-PROTAC activity at GPX4/HSP90/E3 ligase in human HT-1080 cells assessed as GPX4 degradation at 1 uM measured 24 hrs post compound washout by Western blotting analysis. Format: cell-based.

SMILES strings stand for the structures. Activity calls are given as the source filed them. No cut-off for these calls is given here.

As for `COc1c(C)cnc(Cn2cnc3c(NCCC4CCN(C(=O)Cn5cc(COc6ccc(N(C(=O)CCl)C(C(=O)NCCc7ccccc7)c7cccs7)cc6Cl)nn5)CC4)nc(N)nc32)c1C` (stereo not given), the outcome with HT-1080 [1], in the series on HT-1080 [2], in the series on 4T1, in the series with HT-1080 [4], in the series with Mus musculus and in the series on HT-1080 [9] was Active. For the same molecule, the result (in the series with HT-1080 [10]; in series [12]; in the series on HT-1080 [13]; in the series with HT-1080 [17]; with HT-1080 [19]) was Active. The outcome in the series on HT-1080 [3], in the series with HT-1080 [7], in the series with HT-1080 [11], with HT-1080 [14], in the series with HT-1080 [15] and in the series with MDA-MB-231 was inactive. In addition, the AUC(0-t) at 24 h in series [5] was found to be 334 ng·h/mL. Further, the Kd in series [6] came to 190 nM. Moreover, in series [8], the Tmax is 2 h. Moreover, the Activity entry in [16] was “Non-Toxic”; in [18] it was “Non-Toxic”; in series [22], “Non-Toxic”; in the series on HT-1080 [23], “Dose-Dependent Effect”. The molecule also registered an MRT inf in series [20] of 6.2 h. The same molecule showed an IC50 in the series on HT-1080 [21] of 740 nM.
With `COc1c(C)cnc(Cn2cnc3c(NCCOCCOCCOCCn4cc(COc5ccc(N(C(=O)CCl)C(C(=O)NCCc6ccccc6)c6cccs6)cc5Cl)nn4)nc(N)nc32)c1C` (stereo not given), the Drug uptake result in series [24] is recorded as “Not Active”; in series [25] it was “Active”. Besides, the result (in the series on 4T1; in the series on Mus musculus; in the series on HT-1080 [26]; with HT-1080 [10]; in the series with HT-1080 [27]; in [12]) was Active. The outcome in the series with HT-1080 [13] and in the series with HT-1080 [17] was Active. The same molecule showed an AUC(0-t) at 24 h in series [5] of 726 ng·h/mL. For the same molecule, the Kd in series [6] was found to be 2770 nM. For the same molecule, in series [8], the Tmax came out at 2 h. Moreover, the Activity entry in [16], in [18] and in [22] was “Non-Toxic” in each case. Moreover, the MRT inf in [20] is 8.2 h. Besides, the IC50 in the series with HT-1080 [21] is 1300 nM. Besides, in the series with MDA-MB-231, the outcome was inactive.
